Measurements from patent US8227428B2, “Anti-infammatory macrolide” (Glaxo Group Limited, priority 2009, dated 2012).
Converted amounts (≈) assume the structure as drawn.

How the values were obtained:
[1] = In vitro stability in human whole blood; assay type: in vitro ADME; conditions: 37° C.
Method: (§1) An in vitro stability study in human whole blood and plasma is carried out over 24 hours at 37° C. Drug-free freshly collected human blood (CPD—citrate-phosphate-dextrose is used for all blood collections as anticoagulant) and plasma are spiked with a previously prepared standard solution of test compound to a final concentration of 2000 ng/mL. For each compound blood and plasma are spiked in duplicate and incubated for 24 hours. Two separate aliquots of blood or plasma (50 μL) are sampled from each incubation mixture at 0, 15, 30, 60, 120, 240 and 1440 minutes. All aliquots are mixed with an equal volume of water (50 μL) and extracted with 300 μL of acetonitrile/methanol (2:1) containing internal standard (roxithromycin). The samples are then vortexed, centrifuged and analysed by LC/MS/MS (MRM mode). Results are expressed as the percentage of compound remaining, expressed as the ratio of analyte/internal standard.

[2] = In vitro stability in human plasma; assay type: in vitro ADME; conditions: 37° C.
Method: as §1

[3] = test system: Escherichia coli ATCC25922; assay: Anti-bacterial screening, broth microdilution MIC; assay type: cell-based; conditions: read-out: minimal inhibitory concentration (MIC)
Method: (§2) Whole-cell antimicrobial activity of compounds against clinically relevant bacteria (Staphylococcus aureus ATCC13709, Streptococcus pneumoniae ATCC49619, Streptococcus pyogenes ATCC700294, Moraxella catarrhalis ATCC23246, Haemophilus influenzae ATCC49247 and Escherichia coli ATCC25922) is determined by broth microdilution using the Clinical and Laboratory Standards (CLSI) recommended procedure (Document M7-[…], Methods for Dilution Susceptibility Tests for Bacteria that Grow Aerobically). Compounds are dissolved in DMSO to produce a 50 mM stock solution. The stock solution is diluted to a concentration of 128 μg/mL in appropriate media (Haemophilus Test Medium for Haemophilus influenzae, Mueller-Hinton Broth for Staphylococcus aureus, Moraxella catarrhalis and Escherichia coli, and Mueller-Hinton Broth supplemented with 5% horse serum for Streptococcus pyogenes and Streptococcus pneumoniae) to produce a working solution. A Tecan Genesis 150 Workstation (Tecan Group Ltd. Mannedorf, Switzerland) is used to prepare serial two-fold dilutions (50 μL aliquots) of the working solution in a U-shape bottom 96 well microtitre plate. After the compounds are diluted, a 50 μL aliquot of the test isolate ( 1×10^6 cfu/ml) is added to each well of the microtitre plate. The final test concentrations range from 0.125-64 μg/mL. Inoculated plates are incubated at 35° C. in ambient air for 18 to 24 hours. The minimum inhibitory concentration (MIC) is determined as the lowest concentration of compound that inhibited visible growth.

[4] = test system: Haemophilus influenzae ATCC49247; assay: Anti-bacterial screening, broth microdilution MIC; assay type: cell-based; conditions: read-out: minimal inhibitory concentration (MIC)
Method: as §2

[5] = test system: Moraxella catarrhalis ATCC23246; assay: Anti-bacterial screening, broth microdilution MIC; assay type: cell-based; conditions: read-out: minimal inhibitory concentration (MIC)
Method: as §2

[6] = test system: Staphylococcus aureus ATCC13709; assay: Anti-bacterial screening, broth microdilution MIC; assay type: cell-based; conditions: read-out: minimal inhibitory concentration (MIC)
Method: as §2

[7] = test system: Streptococcus pneumoniae ATCC49619; assay: Anti-bacterial screening, broth microdilution MIC; assay type: cell-based; conditions: read-out: minimal inhibitory concentration (MIC)
Method: as §2

[8] = test system: Streptococcus pyogenes ATCC700294; assay: Anti-bacterial screening, broth microdilution MIC; assay type: cell-based; conditions: read-out: minimal inhibitory concentration (MIC)
Method: as §2

[9] = test system: Lung neutrophilia induced by bacterial lipopolysaccharide (LPS); assay: Lung neutrophilia induced by bacterial lipopolysaccharide (LPS) in male BALB/cJ mice; assay type: in vivo; conditions: average; single dose 200 mg/kg i.p.; vs LPS challenged untreated animals
Method: For intraperitoneal administration (i.p.) compounds are dissolved in a final concentration of 10 mg/mL. The required amount of compound is first dissolved in dimethylsulfoxide (DMSO, Sigma) and then diluted with 0.5% (w/v) methyl-cellulose so that the final DMSO concentration is 5% (v/v). The obtained solution is applied in a dose volume of 0.2 mL per 10 g of animal. Therefore, the compound dose is 200 mg/kg.
Male BALB/cJ mice (Charles River, France), with an average weight of ˜30 g are randomly grouped (n=8 in testing group, 10 in positive control and 8 in negative control). Mice receive intraperitoneally (i.p.) a single dose of 200 mg/kg of test compound. Two hours after administration, 2 μg of LPS (from Escherichia coli serotype 0111:B4, Sigma), dissolved in sterile PBS in a volume of 60 μL, is intranasally administered to all experimental groups except the negative control group, which receive the same volume of vehicle (PBS). Animals are sacrificed approximately 24 hours after application of LPS in order to obtain bronchioalveolar lavage fluid (BALF), which is used to determine absolute number of cells and the percentage of neutrophils. Results are expressed as percentage decrease in total cell number and number of neutrophils in BALF of treated animals compared to positive control (LPS challenged, but untreated animals).

CC[C@H]1OC(=O)[C@H](C)[C@@H](O[C@H]2C[C@@](C)(OC)[C@@H](OC(=O)CCN(CC)CC)[C@H](C)O2)[C@H](C)[C@@H](O[C@@H]2O[C@H](C)C[C@H](NC)[C@H]2O)[C@](C)(OC)C[C@@H](C)C(=O)N[C@H](C)[C@@H](O)[C@]1(C)O [Example 2, 3′-N-Demethyl-4″-O-(3-diethylaminopropionoyl)-6-O-methyl-9a-aza-9a-homoerythromycin A]
compound remaining in whole blood ([1]; after 24 hours): around 41% | compound remaining in plasma ([2]; after 24 hours): less than 2% | MIC [3]: > 64 µg/mL | MIC [4]: > 64 µg/mL | MIC [5]: > 64 µg/mL | MIC [6]: > 64 µg/mL | MIC [7]: > 64 µg/mL | MIC [8]: > 64 µg/mL | inhibition of the number of neutrophils in BALF [9]: more than 70%

CC[C@H]1OC(=O)[C@H](C)[C@@H](O[C@H]2C[C@@](C)(OC)[C@@H](OC(=O)CN(CC)CC)[C@H](C)O2)[C@H](C)[C@@H](O[C@@H]2O[C@H](C)C[C@H](N(C)C)[C@H]2O)[C@](C)(OC)C[C@@H](C)C(=O)N[C@H](C)[C@@H](O)[C@]1(C)O [Example 3, 4″-O-(2-diethylaminoethanoyl)-6-O-methyl-9a-aza-9a-homoerythromycin A]
stability in whole blood ([1]; 2000 ng/mL, over 24 hours): stable | stability in plasma ([2]; 2000 ng/mL, over 24 hours): stable | MIC [3]: > 64 µg/mL | MIC [4]: > 64 µg/mL | MIC [5]: 8 µg/mL (≈ 9.13 µM) | MIC [6]: > 64 µg/mL | MIC [7]: 8 µg/mL (≈ 9.13 µM) | MIC [8]: > 64 µg/mL | inhibition of the number of neutrophils in BALF [9]: more than 79%
